Here are results for 1 compound from US6013200A, “Low toxicity corrosion inhibitor” (Baker Hughes Incorporated, priority 1997, dated 2000).

For orientation: EC50 means the concentration at which the effect is half-maximal.

Converted amounts (≈) assume the structure as drawn.

For data set [1], the system named is Skeletonema costatum. As to the kind of experiment: Aquatic toxicity testing. It counts as in vivo.
Data set [2] is described as follows: Biodegradability in sea water. Particulars: after 28 days.

With `NCCN1CCNC1=S` [1-(2-aminoethyl)-2-imidazolidinethione], in data set [1], the EC50 came to 236 µg/mL (≈ 1620 µM). In data set [2], this compound displayed a biodegradability of 100%.
